Experimental data: ChEMBL document CHEMBL3779788, “Facile synthesis of 1,3-thiazolidin-4-ones as antitubercular agents” (Bioorg Med Chem Lett, 2016)
Values after ≈ are worked out from the molar mass of the structure shown.

Columns and labels:
[1] = tested on: Mycobacterium tuberculosis; experiment: Antitubercular activity against dormant Mycobacterium tuberculosis H37Ra assessed as growth inhibition at 10 ug/mL by XTT reduction menadione assay; type: functional; settings: read-out: GI
[2] = Cytotoxicity against human A549 cells at 30 ug/mL by MTT assay; type: cell-based; settings: read-out: INH
[3] = tested on: Mycobacterium tuberculosis; experiment: Antitubercular activity against dormant Mycobacterium tuberculosis H37Ra by XTT reduction menadione assay; type: functional, organism-based
[4] = Cytotoxicity against human HCT116 cells at 3 ug/mL by MTT assay; type: cell-based, HCT-116; settings: read-out: INH
[5] = tested on: Mycobacterium tuberculosis; experiment: Antitubercular activity against dormant Mycobacterium tuberculosis H37Ra assessed as growth inhibition at 3 ug/mL by XTT reduction menadione assay; type: functional; settings: read-out: GI
[6] = Cytotoxicity against human MCF7 cells at 10 ug/mL by MTT assay; type: cell-based; settings: read-out: INH
[7] = tested on: Mycobacterium tuberculosis; experiment: Antitubercular activity against dormant Mycobacterium tuberculosis H37Ra assessed as growth inhibition at 30 ug/mL by XTT reduction menadione assay; type: functional; settings: read-out: GI
[8] = Cytotoxicity against human MCF7 cells at 3 ug/mL by MTT assay; type: cell-based; settings: read-out: INH
[9] = Cytotoxicity against human A549 cells at 10 ug/mL by MTT assay; type: cell-based; settings: read-out: INH
[10] = tested on: Mycobacterium bovis BCG str. ATCC 35743; experiment: Antitubercular activity against dormant Mycobacterium bovis BCG ATCC 35743 assessed as growth inhibition at 10 ug/mL by NR assay; type: functional
[11] = tested on: Mycobacterium bovis BCG str. ATCC 35743; experiment: Antitubercular activity against dormant Mycobacterium bovis BCG ATCC 35743 assessed as growth inhibition at 3 ug/mL by NR assay; type: functional
[12] = Cytotoxicity against human MCF7 cells at 30 ug/mL by MTT assay; type: cell-based; settings: read-out: INH
Staphylococcus aureus = experiment: Antibacterial activity against Staphylococcus aureus after 18 hrs by broth dilution method; type: functional, organism-based
[13] = Cytotoxicity against human HCT116 cells at 10 ug/mL by MTT assay; type: cell-based, HCT-116; settings: read-out: INH
[14] = Cytotoxicity against human A549 cells at 3 ug/mL by MTT assay; type: cell-based; settings: read-out: INH
[15] = tested on: Mycobacterium bovis BCG str. ATCC 35743; experiment: (§1) Antitubercular activity against dormant Mycobacterium bovis BCG ATCC 35743 by NR assay; type: functional
[16] = as §1; type: functional, Mycobacterium bovis BCG str. ATCC 35743
Bacillus subtilis = experiment: Antibacterial activity against Bacillus subtilis after 18 hrs by broth dilution method; type: functional, organism-based
Pseudomonas = experiment: Antibacterial activity against Pseudomonas after 18 hrs by broth dilution method; type: functional, organism-based
Escherichia coli = experiment: Antibacterial activity against Escherichia coli after 18 hrs by broth dilution method; type: functional, organism-based
[17] = (§2) Cytotoxicity against human MCF7 cells after 48 and 72 hrs by MTT assay; type: cell-based; settings: MCF7 cells
MCF7 = experiment: as §2; type: cell-based; settings: mcf7, 72 h
[18] = Cytotoxicity against human HCT116 cells after 48 and 72 hrs by MTT assay; type: cell-based, HCT-116; settings: for GI50 at 72 h: HCT116 cells; for GI90: hct-116, 72 h
[19] = tested on: Mycobacterium bovis BCG str. ATCC 35743; experiment: Antitubercular activity against dormant Mycobacterium bovis BCG ATCC 35743 assessed as growth inhibition at 30 ug/mL by NR assay; type: functional
[20] = Cytotoxicity against human HCT116 cells at 30 ug/mL by MTT assay; type: cell-based, HCT-116; settings: read-out: INH
[21] = (§3) Cytotoxicity against human A549 cells after 48 and 72 hrs by MTT assay; type: cell-based; settings: A549 cells
A549 = experiment: as §3; type: cell-based; settings: a549, 72 h

| SMILES | inhibition of growth at 10 µg/mL [1] | cytotoxicity at 30 ug/mL [2] | IC50 [3] | IC90 [3] | cytotoxicity at 3 ug/mL [4] | inhibition of growth at 3 µg/mL [5] | cytotoxicity at 10 ug/mL [6] | inhibition of growth at 30 µg/mL [7] | cytotoxicity at 3 ug/mL [8] | cytotoxicity at 10 ug/mL [9] | growth inhibition (GI) [10] | growth inhibition (GI) [11] | cytotoxicity at 30 ug/mL [12] | IC50 (Staphylococcus aureus) | MIC (Staphylococcus aureus) | cytotoxicity at 10 ug/mL [13] | cytotoxicity at 3 ug/mL [14] | IC90 [15] | IC50 [16] | IC50 (Bacillus subtilis) | other results |
| --- | --- | --- | --- | --- | --- | --- | --- | --- | --- | --- | --- | --- | --- | --- | --- | --- | --- | --- | --- | --- | --- |
| O=C1CSC(c2ccc(F)cc2)N1c1ccccc1 (stereo unspecified) | 73.2% | 0% | 6.8 µg/mL (≈ 24.9 µM) | 27.5 µg/mL (≈ 101 µM) | -0.5% | 25.6% | 10.8% | 92.2% | -4.1% | 0% | 14.4% | -10.7% | 33% | > 30 µg/mL | > 30 µg/mL | 14.6% | 0% | > 30 µg/mL | 20.9 µg/mL (≈ 76.5 µM) | > 30 µg/mL | MIC (Bacillus subtilis): > 30 µg/mL; IC50 (Pseudomonas): > 30 µg/mL; MIC (Pseudomonas): > 30 µg/mL; IC50 (Escherichia coli): > 30 µg/mL; MIC (Escherichia coli): > 30 µg/mL; GI50 at 72 h [17]: > 100 µg/mL; GI90 (MCF7): > 100 µg/mL; GI50 at 72 h [18]: > 100 µg/mL; GI90 [18]: > 100 µg/mL; growth inhibition (GI) [19]: 80.2%; cytotoxicity at 30 ug/mL [20]: 23.5%; GI50 at 72 h [21]: > 100 µg/mL; GI90 (A549): > 100 µg/mL |
| O=C1CSC(c2ccc(Cl)cc2)N1c1ccccc1 (stereo unspecified) | 76.8% | -20.4% | 5.6 µg/mL (≈ 19.3 µM) | > 30 µg/mL | -7.5% | 34.3% | 20.6% | 82.1% | -1.4% | 0% | 15.9% | -0.5% | 40.1% | > 30 µg/mL | > 30 µg/mL | 0% | -10.3% | > 30 µg/mL | > 30 µg/mL | > 30 µg/mL | MIC (Bacillus subtilis): > 30 µg/mL; IC50 (Pseudomonas): > 30 µg/mL; MIC (Pseudomonas): > 30 µg/mL; IC50 (Escherichia coli): > 30 µg/mL; MIC (Escherichia coli): > 30 µg/mL; GI50 at 72 h [17]: > 100 µg/mL; GI90 (MCF7): > 100 µg/mL; GI50 at 72 h [18]: > 100 µg/mL; GI90 [18]: > 100 µg/mL; growth inhibition (GI) [19]: 45.6%; cytotoxicity at 30 ug/mL [20]: 3.9%; GI50 at 72 h [21]: > 100 µg/mL; GI90 (A549): > 100 µg/mL |
